Results published in patent publication US20140364359A1, “COMPOSITIONS AND METHODS FOR TREATING CANCER AND INFLAMMATION-RELATED DIESEASES AND CONDITIONS” (priority 2012, published 2014).
Entries after “also recorded” stand apart in the source; their conditions may differ. Where two headings read alike, the source gives them in different places.

Assays:
[1] = mice, cited from earlier work
[2] = system: SGC-7901 peritoneal carcinomatosis; test: GC peritoneal carcinomatosis model, therapeutic study; format: in vivo, nude mice; settings: ADM 2.0 mg/kg; for lung metastasis / median (range) ePCI score: D40; for lung metastasis / relative ePCI reduction: PADM 7.2 mg/kg i.p x8; for median (range) ePCI score: i.p x8 (D8-D36), PADM 7.2 mg/kg; for relative ePCI reduction: compared with control
Metastases = test: Percent inhibition of growth relative to controls, metastases (Table 4); format: in vivo
Primary tumor = test: Percent inhibition of growth relative to controls, primary tumor (Table 4); format: in vivo
[3] = for peripheral blood parameters (RBC, lymphocytes) versus control: D16, D24, D32 tail vein blood; for liver and kidney function (ALT, AST, BUN, Cr) versus control: D40 serum, 4 major parameters; for body weight: ADM 2.0 mg/kg, PADM 7.2 mg/kg i.p x8 (FIG. 3)
Description: After 3 days of adaptation, the animals were used for in vivo study, and the protocols were approved by the Animal Care Committee of Wuhan University.
SGC-7901 cells (5×10^6/0.2 ml) were subcutaneously inoculated into the back of nude mice (n=4) as donor tumors, and cells (1×10^7/0.4 ml) were i.p inoculated into the peritoneal cavity of nude mice (n=2). After 50 days, tumor nodules and ascites were obtained and tumor tissue homogenate was re-suspended in ascites at a density of 1×10^7/ml (ascites were used as condition medium). These cell suspensions were injected i.p into 29 nude mice, 0.2 ml containing 5×10^6 cells for each animal, on day 0 (D0). On D8, all of the mice were randomized into 3 groups: control group (n=9), ADM group (n=10) and PADM group (n=10). […] D40 was set as the end point of this study. On D16, D24 and D32, 80 μl of blood was obtained from tail veins, anticoagulated by EDTA, and analyzed by Sysmex KX-21 automated hematology analyzer (Sysmex, Kobe, Japan). On D40, all mice were sacrificed, blood was obtained, coagulated and centrifugated at 4° C.×3000 rpm for 10 min to separate serum for biochemical analysis, including ALT (alanine aminotransferase), AST (aspartate aminotransferase), BUN (blood urea nitrogen), Cr (creatinine), CK (creatine kinase), CK-MB (creatine kinase-MB), LDH (lactate dehydrogenase) by Aeroset Clinical Chemistry Analyzer (Abbott Laboratories, IL, USA).
At autopsy, major organs including the heart, liver, kidneys, spleen and lungs were examined for any toxic changes. Any organs involved by the tumor and the tumor nodules were formalin-fixed, paraffin-embedded, and cut at 5-μm thickness, for histopathological study after hematoxylin and eosin (H&E) staining

SGC-7901 cells [4] = test: Cell growth assay; format: cell-based; settings: Homo sapiens, read-out: inhibition rate of cell growth
Description: (§1) Human gastric adenocarcinoma cell line SGC-7901 which had been widely used for gastric cancer research was maintained in Hubei Key Laboratory of Tumor Biological Behaviors. Cells were cultured in RPMI-1640 medium supplemented with 10% standard newborn bovine serum in the 5% CO2, saturated humidity, 37° C. incubator (Shel Lab, OR, USA). The culture medium was changed every 2 days.
SGC-7901 cells at exponential growth phase were planted in 24-well culture plates (Corning, N.Y., USA) at a density of 1×10^5/well. After 48 h, cell numbers were determined by direct cell counting of 3 wells, which was designated as cell number of day 0 (D0). Then the cells were divided into 6 groups, treated with normal saline (100 μl), ADM (0.5 μg/ml), ADM (1.0 μg/ml), PADM (0.9 μg/ml), PADM (1.8 μg/ml), and PADM (3.6 μg/ml), respectively, 3 wells per group. Cells in each group were harvested and counted daily from D2 to D7. The cell growth curve was plotted.

SGC-7901 cells [5] = test: Flow cytometric analysis of cell cycle; format: cell-based, Human; settings: SGC-7901, 24 h, ADM 0.25 μg/ml, PADM 0.45 μg/ml
Description: as §1
To study the effect of PADM on cell cycle, flow cytometric analysis was performed. SGC-7901 cells were planted in 6-well culture plates (Corning, N.Y., USA), at a density of 2×10^6/well. After 48 h, the cells were divided into 3 groups and treated for 24 h with normal saline (25 μl), ADM (0.25 μg/ml), and PADM (0.45 μg/ml). The cells in each group were harvested to make single-cell suspension, centrifuged at 4° C.×1000 rpm for 10 min, washed twice with phosphate buffered saline (pH=7.4), fixed and stained with PI kit. Cell cycle analysis was performed by flow cytometry with FC 500 (Beckman Coulter, Calif., USA).

[6] = 37° C., over 6-7 h; cited from earlier work
Pilot dosage study = settings: nude mice
Cat B = Cat B (Homo sapiens, UniProt P07858); settings: cited from earlier work
[7] = Metastases to Mediastinal lymph nodes

**Q.** What does the source list for `COc1cccc2c1C(=O)c1c(O)c3c(c(O)c1C2=O)C[C@@](O)(C(=O)CO)C[C@@H]3O[C@H]1C[C@H](N)[C@H](O)[C@H](C)O1` [ADM, doxorubicin, reference compound]?
**A.** LD50 ([1]; given intraperitoneally (i.p)): 13.2 mg/kg; LD50 ([1]; given intravenously): 12.0 mg/kg; lung metastasis [2]: no lung metastasis; median (range) ePCI score [2]: 1.5 (0-6); relative ePCI reduction [2]: 75%; Percent inhibition of growth relative to controls (Metastases; Metastases to Diaphragm): 19%; Percent inhibition of growth relative to controls (Metastases; Metastases to Lung): 36%; Percent inhibition of growth relative to controls (Metastases; [7]): 9.1%; Percent inhibition of growth relative to controls (Metastases; Metastases to Mesenteric): 9.1%; Percent inhibition of growth relative to controls (Metastases; Metastases to Retroperitoneal): 65%; Percent inhibition of growth relative to controls (Primary tumor): 42%; peripheral blood parameters (RBC, lymphocytes) versus control [3]: significantly lower RBC counts; nude mice died due to severe toxicity ([3]; D36, group n=10): 1; liver and kidney function (ALT, AST, BUN, Cr) versus control [3]: 3 out of the 4 parameters achieved statistical significance; animals with significant myocardium toxicities (histopathology) ([3]; male, BALB/c nude, mouse, in vivo): 7 animals; body weight course versus control ([3]; nude mice PC model, whole study period to D40): significant decrease on D24; body weight ([3]; nude mice PC model): 18.40 ± 2.97 g; inhibition at 0.5 µg/mL (SGC-7901 cells [4]; SGC-7901, D7, 0.5 μg/ml): 80.2%; inhibition at 1 µg/mL (SGC-7901 cells [4]; SGC-7901, D7, 1.0 μg/ml): 96.3%; effect on cell cycle / apoptosis (SGC-7901 cells [5]): a prominent apoptosis peak was observed

**Q.** Which lung metastasis [2] does the source give for `COc1cccc2c1C(=O)c1c(O)c3c(c(O)c1C2=O)C[C@@](O)(C(=O)CO)C[C@@H]3O[C@H]1C[C@H](NC(=O)OCc2ccc(NC(=O)[C@H](CCCCN)NC(=O)[C@H](Cc3ccccc3)NC(C)=O)cc2)[C@H](O)[C@H](C)O1` [PADM, Ac-Phe-Lys-PABC-ADM] here?
**A.** Its lung metastasis is “no lung metastasis”.

**Q.** And the “median (range) ePCI score” value [2]?
**A.** Its value is 1 (1-4).

**Q.** What about the “relative ePCI reduction” value [2] of the same compound?
**A.** Its value is 83.3%.

**Q.** What about the “Ratio, PADM/Dox” value (Metastases; Metastases to Diaphragm) of the same compound?
**A.** Its value is 2.3.

**Q.** And the “Ratio, PADM/Dox” value (Metastases; Metastases to Lung)?
**A.** The value was 1.9.

**Q.** What about the “Ratio, PADM/Dox” value (Metastases; [7]) of the same compound?
**A.** Its value is 5.7.

**Q.** What about the “Ratio, PADM/Dox” value (Metastases; Metastases to Mesenteric) of the same compound?
**A.** The value was 3.8.

**Q.** And the “Ratio, PADM/Dox” value (Metastases; Metastases to Retroperitoneal)?
**A.** The value was 1.2.

**Q.** And the “Ratio, PADM/Dox” value (Primary tumor)?
**A.** Its value is 1.05.

**Q.** And the “peripheral blood parameters (RBC, lymphocytes) versus control” value [3]?
**A.** The value was “no differences”.

**Q.** And the “animals with significant myocardium toxicities (histopathology)” value ([3]; D40, group n=10)?
**A.** The value was 4 animals.

**Q.** And the “liver and kidney function (ALT, AST, BUN, Cr) versus control” value [3]?
**A.** Its value is “only ALT levels achieved statistical significance”.

**Q.** What about the body weight ([3]; nude mice PC model) of the same compound?
**A.** The body weight was 23.61 ± 0.80 g.

**Q.** And the “changes in human plasma (stability)” value [6]?
**A.** Its value is “no changes were observed; also recorded: stable in human plasma”.

**Q.** And the “histopathological study of major organs” value (Pilot dosage study; after 4 administrations)?
**A.** The value was “No obvious damages”.

**Q.** What about the body weight changes (Pilot dosage study; after the fourth administration, total 96.0 mg/kg group A, 144.0 mg/kg group B) of the same compound?
**A.** The body weight changes was “persistent body weight decreases”.

**Q.** And the body weight changes (Pilot dosage study; i.p, first 3 injections, groups A and B)?
**A.** Its body weight changes is “no obvious changes in body weight”.

**Q.** What about the “ceiling dosage set for formal in vivo test” value (Pilot dosage study; total dosage) of the same compound?
**A.** The value was “below 96.0 mg/kg”.

**Q.** And the “effect on cell cycle / apoptosis” value (SGC-7901 cells [5])?
**A.** The value was “did not show significant apoptosis”.

**Q.** What about the “cleavage in Cat B-rich medium” value (Cat B) of the same compound?
**A.** Its value is “rapidly cleaved”.
